Test results: US7592005B2, “Monoclonal antibody” (Kirin Beer Kabushiki Kaisha, priority 2000, dated 2009)

Test system: IM9 cells
Experiment: Cellular cytotoxicity on human myeloma cell line IM9 (MTS)
Conditions: read-out: IC50, cellular cytotoxicity, free maytansine derivative
Protocol: In the same manner as in Example 11, the reactivity to the human myeloma cell line IM9 cell (ATCC CCL-159) was investigated. […] Thereafter, a solution of MTS (3-(4,5-dimethylthiazol-2-yl)-5-(3-carboxymethoxyphenyl)-2-(4-sulphophenyl)-2H-tetrazolium, Promega) was added to each well in amounts of 20 μl each, followed by culturing for an additional 2 hours. Subsequently, the absorbance at 490 nm of the surviving cells was assayed using a microplate reader (MTP-300, Corona Electric Co., Ltd.).

COc1cc2cc(c1Cl)N(C)C(=O)C[C@H](OC(=O)[C@H](C)N(C)C(=O)CCSSC)[C@]1(C)O[C@H]1[C@H](C)[C@@H]1C[C@@](O)(NC(=O)O1)[C@H](OC)/C=C/C=C(\C)C2 [May-SS-Me]
IC50: 10 nM
